Test results reported in ChEMBL document CHEMBL2429827, “Pharmacological evaluation of some novel synthesized compounds derived from spiro(cyclohexane-1,2-thiazolidines)” (2013).
In brackets after ≈: the same amount, converted by molar mass. Activity calls are given as the source filed them. No cut-off for these calls is given here.

Experiments:
[1] = test system: MCF7; assay: Cytotoxicity against human MCF7 cells at 100 ug/ml after 72 hrs by SRB assay; format: functional
[2] = test system: Radical scavenging activity; assay: Antioxidant activity assessed as DPPH radical scavenging activity at 50 ug/ml after 30 mins by spectroscopic analysis; format: functional
[3] = test system: Radical scavenging activity; assay: Antioxidant activity assessed as DPPH radical scavenging activity at 100 ug/ml after 30 mins by spectroscopic analysis; format: functional
[4] = test system: HepG2; assay: Cytotoxicity against human HepG2 cells at 100 ug/ml after 72 hrs by SRB assay; format: functional
[5] = test system: Escherichia coli; assay: Antibacterial activity against Escherichia coli NRRL B-210 after 24 hrs by agar diffusion method; format: functional, organism-based
[6] = test system: Staphylococcus aureus; assay: Antibacterial activity against Staphylococcus aureus NRRL B-313 after 24 hrs by agar diffusion method; format: functional, organism-based
[7] = test system: Aspergillus niger; assay: Antifungal activity against Aspergillus niger after 24 hrs by agar diffusion method; format: functional, organism-based
[8] = test system: Bacillus subtilis; assay: Antibacterial activity against Bacillus subtilis NRRL B-543 after 24 hrs by agar diffusion method; format: functional, organism-based
[9] = test system: Candida albicans; assay: Antifungal activity against Candida albicans NRRL Y-477 after 24 hrs by agar diffusion method; format: functional, organism-based
[10] = test system: Candida albicans; assay: Antifungal activity against Candida albicans NRRL Y-477 after 48 hrs by two-fold serial dilution technique; format: functional; details: NRRL Y-477, 48 h
[11] = test system: Aspergillus niger; assay: Antifungal activity against Aspergillus niger after 48 hrs by two-fold serial dilution technique; format: functional
[12] = test system: Bacillus subtilis; assay: Bacteriostatic activity against Bacillus subtilis NRRL B-543 after 24 hrs by two-fold serial dilution technique; format: functional; details: NRRL B-543, 24 h
[13] = test system: Staphylococcus aureus; assay: Bacteriostatic activity against Staphylococcus aureus NRRL B-313 after 24 hrs by two-fold serial dilution technique; format: functional; details: NRRL B-313, 24 h
[14] = test system: Escherichia coli; assay: Bacteriostatic activity against Escherichia coli NRRL B-210 after 24 hrs by two-fold serial dilution technique; format: functional; details: NRRL B-210, 24 h

Compound	Activity [1] [%]	Activity [2] [%]	Activity [3] [%]	Activity [4] [%]	Activity [5]	Activity [6]	Activity [7]	Activity [8]	Activity [9]	MIC [10] [µg/mL]	MIC [11] [µg/mL]	MIC [12] [µg/mL]	MIC [13] [µg/mL]	MIC [14] [µg/mL]
Cc1ccc(/C=C2/SC3(CCCCC3)N(c3ccc(F)cc3)C2=O)cc1	61.2	41.1	66.8	50.32										
Cc1ccc(-c2c3c(nc4nc(C)[nH]c(=O)c24)N(c2ccc(F)cc2)C2(CCCCC2)S3)cc1	84	65	92.5	78.85										
Cc1ccc(C2NOC3=C2SC2(CCCCC2)N3c2ccc(F)cc2)cc1 (centres undefined)	56.62	41	60.5	45.6	inactive	inactive	inactive	inactive	Active					
N/N=C1\CSC2(CCCCC2)N1c1ccc(F)cc1					inactive	Active	Active	Active	Active	0.435 (≈ 1.56 µM)	0.45 (≈ 1.61 µM)	0.4 (≈ 1.43 µM)	0.4 (≈ 1.43 µM)	
Cc1ccc(-c2c3c(nc4[nH]c(=S)[nH]c(=S)c24)N(c2ccc(F)cc2)C2(CCCCC2)S3)cc1	64.2	60	84.6	50.21										
CC(=O)Nc1nc2c(c(-c3ccc(C)cc3)c1C#N)SC1(CCCCC1)N2c1ccc(F)cc1	65	49.9	79.8	50.63										
O=C1/C(=N\Nc2ccc([N+](=O)[O-])cc2)SC2(CCCCC2)N1c1ccc(F)cc1					inactive	Active	inactive	Active	Active	0.45 (≈ 1.09 µM)	0.3 (≈ 0.724 µM)	0.175 (≈ 0.422 µM)	0.175 (≈ 0.422 µM)	
O=C1/C(=C\c2ccc(Cl)cc2)SC2(CCCCC2)N1c1ccc(Br)cc1					inactive	inactive	inactive	Active	Active					
O=C1CSC2(CCCCC2)N1c1ccc(Br)cc1					Active	Active	Active	Active	Active	0.2 (≈ 0.613 µM)		0.2 (≈ 0.613 µM)	0.3 (≈ 0.92 µM)	0.2 (≈ 0.613 µM)
O=C1CSC2(CCCCC2)N1c1ccc(F)cc1					Active	Active	Active	Active	Active	0.125 (≈ 0.471 µM)	0.125 (≈ 0.471 µM)	0.125 (≈ 0.471 µM)	0.15 (≈ 0.565 µM)	0.125 (≈ 0.471 µM)
Cc1ccc(-c2c3c(oc(=O)c2C#N)N(c2ccc(F)cc2)C2(CCCCC2)S3)cc1					inactive	Active	Active	Active	Active	0.2 (≈ 0.462 µM)	0.3 (≈ 0.694 µM)	0.12 (≈ 0.277 µM)	0.125 (≈ 0.289 µM)	
Fc1ccc(N2/C(=N/Nc3ccccc3)CSC23CCCCC3)cc1					inactive	Active	inactive	inactive	Active					
NS(=O)(=O)c1ccc(/N=C2\CSC3(CCCCC3)N2c2ccc(F)cc2)cc1					inactive	Active	inactive	Active	Active					
Cc1ccc(-c2c3c(nc4[nH]c(=S)nc(NN)c24)N(c2ccc(F)cc2)C2(CCCCC2)S3)cc1	45.62	50.2	78.2	15.65										
Cc1ccc(-c2c(C#N)c(N)nc3c2SC2(CCCCC2)N3c2ccc(F)cc2)cc1	55.84	54.6	85	45	inactive	Active	inactive	inactive	Active					
O=C1/C(=C\c2ccc(Cl)cc2)SC2(CCCCC2)N1c1ccc(F)cc1					Active	inactive	inactive	inactive	Active					
